{
  "source": "patent US11697648B2",
  "about": "“Fused pyrimidine pyridinone compounds as JAK inhibitors” (THERAVANCE BIOPHARMA R&D IP, LLC, priority 2019, dated 2023)",
  "key": {"JAK2": {"target": "JAK2 (Homo sapiens (Human), UniProt O60674)", "sequence (O60674 whole entry)": "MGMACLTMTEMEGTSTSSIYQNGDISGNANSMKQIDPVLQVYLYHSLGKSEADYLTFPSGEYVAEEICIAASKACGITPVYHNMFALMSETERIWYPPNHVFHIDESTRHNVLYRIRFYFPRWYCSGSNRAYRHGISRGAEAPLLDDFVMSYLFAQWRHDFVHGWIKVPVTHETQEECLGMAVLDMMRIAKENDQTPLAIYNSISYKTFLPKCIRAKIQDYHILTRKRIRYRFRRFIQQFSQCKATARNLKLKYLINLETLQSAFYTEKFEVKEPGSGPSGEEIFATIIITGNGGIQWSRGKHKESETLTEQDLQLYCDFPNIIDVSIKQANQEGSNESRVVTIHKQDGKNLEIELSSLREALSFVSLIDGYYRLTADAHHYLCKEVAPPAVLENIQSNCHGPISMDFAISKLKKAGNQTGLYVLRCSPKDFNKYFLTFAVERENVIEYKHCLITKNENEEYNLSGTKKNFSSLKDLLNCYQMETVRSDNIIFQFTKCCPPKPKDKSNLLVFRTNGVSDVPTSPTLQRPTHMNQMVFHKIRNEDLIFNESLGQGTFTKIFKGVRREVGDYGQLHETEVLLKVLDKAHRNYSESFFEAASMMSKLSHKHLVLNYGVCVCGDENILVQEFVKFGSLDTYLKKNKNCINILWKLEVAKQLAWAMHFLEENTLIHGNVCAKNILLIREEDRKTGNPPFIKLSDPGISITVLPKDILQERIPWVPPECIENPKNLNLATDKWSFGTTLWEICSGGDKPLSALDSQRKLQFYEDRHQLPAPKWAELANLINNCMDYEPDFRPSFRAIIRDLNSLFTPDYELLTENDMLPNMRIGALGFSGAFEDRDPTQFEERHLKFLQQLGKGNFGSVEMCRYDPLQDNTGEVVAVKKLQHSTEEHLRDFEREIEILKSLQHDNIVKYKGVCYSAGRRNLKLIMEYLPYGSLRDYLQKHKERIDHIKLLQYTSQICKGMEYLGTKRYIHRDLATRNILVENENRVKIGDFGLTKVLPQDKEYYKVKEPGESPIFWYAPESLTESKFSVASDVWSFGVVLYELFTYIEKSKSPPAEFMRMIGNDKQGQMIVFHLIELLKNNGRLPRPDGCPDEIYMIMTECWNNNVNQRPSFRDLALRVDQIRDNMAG", "test": "Biochemical JAK2 kinase assay (LanthaScreen)", "how_it_was_run": "(§1)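 GST-JAK + GFP-STAT1 peptide, HEPES pH 7.5/MgCl2/EGTA/Brij-35 buffer; cpd preincubation 1 h RT; ATP start, 1 h RT; stop with 10 mM EDTA + 2 nM Tb-anti-pSTAT1; TR-FRET 520/495. 4-parameter IC50 → pKi (Cheng-Prusoff).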"}, "[1]": {"test": "Colon and plasma mouse pharmacokinetics", "type": "in vivo", "conditions": "mouse, colon tissue / plasma; male Balb/c mice, 10 mg/kg PO; ratio of the colon AUC to the plasma AUC", "how_it_was_run": "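Male Balb/c mice given 10 mg/kg PO in 1% HPMC + 0.1% Tween-80; plasma, colon tissue and colon contents taken at 0.5, 2 and 6 h, quantified by LC/MS/MS. Non-compartmental analysis on means of 2 animals/time point; colon:plasma ratio taken as colon AUC over plasma AUC.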"}, "JAK3": {"target": "JAK3 (Homo sapiens (Human), UniProt P52333)", "sequence (P52333 whole entry)": "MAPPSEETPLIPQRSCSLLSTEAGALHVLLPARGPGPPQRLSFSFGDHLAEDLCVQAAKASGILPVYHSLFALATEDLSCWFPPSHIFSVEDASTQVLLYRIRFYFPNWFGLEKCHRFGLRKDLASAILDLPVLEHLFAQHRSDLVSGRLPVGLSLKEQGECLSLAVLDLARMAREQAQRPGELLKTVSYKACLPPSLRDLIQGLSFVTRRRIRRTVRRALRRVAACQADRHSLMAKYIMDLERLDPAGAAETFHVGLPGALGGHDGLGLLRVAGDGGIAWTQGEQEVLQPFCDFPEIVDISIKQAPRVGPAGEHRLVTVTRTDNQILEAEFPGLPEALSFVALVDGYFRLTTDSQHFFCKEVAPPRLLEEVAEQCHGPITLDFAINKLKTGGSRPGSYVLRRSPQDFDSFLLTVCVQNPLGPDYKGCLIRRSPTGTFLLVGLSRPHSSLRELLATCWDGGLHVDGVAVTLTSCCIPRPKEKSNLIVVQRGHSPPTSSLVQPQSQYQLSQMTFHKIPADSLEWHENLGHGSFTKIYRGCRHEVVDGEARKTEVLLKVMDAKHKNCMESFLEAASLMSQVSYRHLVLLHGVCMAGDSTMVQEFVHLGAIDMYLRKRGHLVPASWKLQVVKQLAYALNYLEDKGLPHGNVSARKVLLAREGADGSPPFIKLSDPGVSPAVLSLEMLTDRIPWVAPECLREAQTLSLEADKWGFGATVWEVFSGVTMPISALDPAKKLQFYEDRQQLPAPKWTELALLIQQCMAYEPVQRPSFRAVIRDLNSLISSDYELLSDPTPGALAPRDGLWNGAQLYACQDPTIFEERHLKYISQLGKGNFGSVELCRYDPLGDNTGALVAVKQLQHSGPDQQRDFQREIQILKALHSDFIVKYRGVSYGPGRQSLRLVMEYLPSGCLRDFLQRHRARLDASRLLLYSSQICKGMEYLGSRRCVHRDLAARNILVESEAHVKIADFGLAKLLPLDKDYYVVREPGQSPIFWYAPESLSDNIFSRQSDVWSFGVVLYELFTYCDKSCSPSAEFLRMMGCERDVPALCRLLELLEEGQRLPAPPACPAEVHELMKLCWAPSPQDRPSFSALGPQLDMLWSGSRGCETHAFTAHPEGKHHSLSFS", "test": "Biochemical JAK3 kinase assay (LanthaScreen)", "conditions": "for JAK3 (pKi)-JAK1 (pKi): selectivity JAK3 over JAK1, difference of pKi", "how_it_was_run": "as §1"}, "Tyk2": {"target": "Tyk2 (Homo sapiens (Human), UniProt P29597)", "sequence (P29597 whole entry)": "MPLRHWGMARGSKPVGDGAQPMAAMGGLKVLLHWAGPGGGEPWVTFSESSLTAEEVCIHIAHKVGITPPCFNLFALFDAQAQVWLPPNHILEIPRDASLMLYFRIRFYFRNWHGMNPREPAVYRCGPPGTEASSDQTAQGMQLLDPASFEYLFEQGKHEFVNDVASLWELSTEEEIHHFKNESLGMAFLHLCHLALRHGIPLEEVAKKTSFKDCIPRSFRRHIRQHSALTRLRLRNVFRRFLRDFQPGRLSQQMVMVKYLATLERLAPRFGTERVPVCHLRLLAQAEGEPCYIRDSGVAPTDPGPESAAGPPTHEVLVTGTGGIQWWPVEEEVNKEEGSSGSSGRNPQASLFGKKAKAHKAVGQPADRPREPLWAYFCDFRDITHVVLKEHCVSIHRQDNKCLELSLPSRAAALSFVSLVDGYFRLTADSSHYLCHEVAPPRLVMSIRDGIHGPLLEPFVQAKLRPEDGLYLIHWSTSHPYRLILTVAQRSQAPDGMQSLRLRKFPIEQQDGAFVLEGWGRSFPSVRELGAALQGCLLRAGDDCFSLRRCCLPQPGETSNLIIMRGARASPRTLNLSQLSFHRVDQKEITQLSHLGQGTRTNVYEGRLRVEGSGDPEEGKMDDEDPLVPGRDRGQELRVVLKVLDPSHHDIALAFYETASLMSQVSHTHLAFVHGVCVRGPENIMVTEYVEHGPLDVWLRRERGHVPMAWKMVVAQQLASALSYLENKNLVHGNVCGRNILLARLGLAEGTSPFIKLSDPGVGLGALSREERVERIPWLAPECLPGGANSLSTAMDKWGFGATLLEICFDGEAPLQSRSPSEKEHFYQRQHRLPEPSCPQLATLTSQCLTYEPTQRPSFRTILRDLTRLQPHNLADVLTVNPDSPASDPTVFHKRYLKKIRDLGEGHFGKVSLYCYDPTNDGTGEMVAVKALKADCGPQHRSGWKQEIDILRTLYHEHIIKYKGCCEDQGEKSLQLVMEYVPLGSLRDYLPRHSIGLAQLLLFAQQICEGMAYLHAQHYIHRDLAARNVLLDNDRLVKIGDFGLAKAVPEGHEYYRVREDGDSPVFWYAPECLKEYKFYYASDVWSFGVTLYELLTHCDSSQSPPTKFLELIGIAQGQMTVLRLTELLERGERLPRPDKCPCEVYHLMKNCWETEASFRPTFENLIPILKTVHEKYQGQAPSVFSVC", "test": "Biochemical Tyk2 kinase assay (LanthaScreen)", "how_it_was_run": "as §1"}, "Caco-2 cell monolayers": {"system": "Caco-2 cell monolayers", "test": "Caco-2 permeation assay", "type": "in vitro ADME", "conditions": "5 μM, A-B direction, with Verapamil (25 μM)", "how_it_was_run": "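Passive A-to-B permeability with P-gp inhibited by verapamil (25 μM); compound at 5 μM, n=2. Both compartments sampled at t0 and t120 and quantified by LC-MS/MS, giving apparent permeability in cm/sec from flux, area and concentration.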"}, "JAK1": {"target": "JAK1 (Homo sapiens (Human), UniProt P23458)", "sequence (P23458 whole entry)": "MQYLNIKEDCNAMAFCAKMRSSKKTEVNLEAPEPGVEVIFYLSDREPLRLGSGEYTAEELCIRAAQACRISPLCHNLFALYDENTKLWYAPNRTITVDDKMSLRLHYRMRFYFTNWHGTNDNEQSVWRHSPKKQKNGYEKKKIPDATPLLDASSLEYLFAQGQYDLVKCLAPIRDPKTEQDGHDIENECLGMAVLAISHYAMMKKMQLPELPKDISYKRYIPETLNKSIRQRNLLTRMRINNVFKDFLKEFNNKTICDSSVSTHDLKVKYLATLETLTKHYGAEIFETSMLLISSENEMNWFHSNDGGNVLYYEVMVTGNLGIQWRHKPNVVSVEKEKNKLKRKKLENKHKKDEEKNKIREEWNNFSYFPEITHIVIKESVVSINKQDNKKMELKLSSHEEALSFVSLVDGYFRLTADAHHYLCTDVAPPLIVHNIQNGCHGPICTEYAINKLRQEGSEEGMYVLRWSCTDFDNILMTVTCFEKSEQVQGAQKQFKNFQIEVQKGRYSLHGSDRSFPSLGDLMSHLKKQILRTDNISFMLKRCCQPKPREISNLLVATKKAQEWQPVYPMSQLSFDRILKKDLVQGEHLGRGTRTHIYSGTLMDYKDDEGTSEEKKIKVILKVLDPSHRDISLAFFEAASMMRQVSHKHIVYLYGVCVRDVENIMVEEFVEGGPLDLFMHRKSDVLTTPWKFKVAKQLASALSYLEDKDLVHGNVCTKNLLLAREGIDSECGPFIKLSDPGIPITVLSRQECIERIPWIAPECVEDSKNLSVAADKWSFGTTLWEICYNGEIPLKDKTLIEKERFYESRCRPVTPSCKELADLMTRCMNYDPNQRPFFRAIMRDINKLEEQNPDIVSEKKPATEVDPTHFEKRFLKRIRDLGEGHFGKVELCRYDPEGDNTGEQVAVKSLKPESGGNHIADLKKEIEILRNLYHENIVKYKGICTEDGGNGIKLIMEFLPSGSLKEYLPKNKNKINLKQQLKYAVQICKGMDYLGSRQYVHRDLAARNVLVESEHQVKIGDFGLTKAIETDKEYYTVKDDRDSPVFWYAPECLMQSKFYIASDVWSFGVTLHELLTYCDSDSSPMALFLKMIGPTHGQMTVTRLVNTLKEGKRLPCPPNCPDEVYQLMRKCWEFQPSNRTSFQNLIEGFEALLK", "test": "Biochemical JAK1 kinase assay (LanthaScreen)", "how_it_was_run": "as §1"}, "[2]": {"system": "IL-2 stimulated STAT5 phosphorylation in Tall-1 human T cell line (JAK3)", "test": "Cellular JAK3 potency assay: inhibition of IL-2 stimulated pSTAT5 in Tall-1 T cells", "type": "cell-based", "conditions": "IL-2 stimulated pSTAT5, Tall-1 T cells", "how_it_was_run": "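AlphaLISA SureFire Ultra measures STAT5 Tyr694/699 phosphorylation in lysed Tall-1 human T cells. Cells were exposed to compound for 1 h at 37 °C before a 30 min IL-2 challenge (300 ng/ml final). Values are pIC50 means with standard deviation from signal-versus-concentration curves.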"}},
  "data": [
    {"smiles": "C=CC(=O)N1CC(CCn2c(=O)ccc3cnc(Nc4cccc(CN5CCN(C(=O)CSC)CC5)c4)nc32)C1", "note": "[Example 134]", "values": [
      {"measurement": "JAK 2 (pKi)", "setting": "JAK2", "value": "E (E represents a pKi value of 7 or below (Ki of 100 nM or above))"},
      {"measurement": "Kp", "setting": "[1]", "value": "> 100"},
      {"measurement": "JAK 3 (pKi)", "setting": "JAK3", "value": "A (A represents a pKi value≥10 (Ki≤0.1 nM))"},
      {"measurement": "JAK3 (pKi)-JAK1 (pKi)", "setting": "JAK3", "value": "A (A represents a value of 3 or above)"},
      {"measurement": "Tyk 2 (pKi)", "setting": "Tyk2", "value": "E (E represents a pKi value of 7 or below (Ki of 100 nM or above))"},
      {"measurement": "Caco Kp", "setting": "Caco-2 cell monolayers", "value": "A (A represents a value below 5×10^−6 cm/sec)"},
      {"measurement": "JAK 1 (pKi)", "setting": "JAK1", "value": "E (E represents a pKi value of 7 or below (Ki of 100 nM or above))"},
      {"measurement": "Tall-1 (pIC50)", "setting": "[2]", "value": "B (B represents a pC50 value between 6.7 (included) and 7.5 (IC50 between 200 nM and 32 nM))"}
    ]},
    {"smiles": "C=CC(=O)N1CCN(CCn2c(=O)ccc3cnc(Nc4ccc(N5CCN(C(=O)CSC)CC5)cc4)nc32)CC1", "note": "[Example 150]", "values": [
      {"measurement": "JAK 2 (pKi)", "setting": "JAK2", "value": "E (E represents a pKi value of 7 or below (Ki of 100 nM or above))"},
      {"measurement": "Kp", "setting": "[1]", "value": "> 100"},
      {"measurement": "JAK 3 (pKi)", "setting": "JAK3", "value": "A (A represents a pKi value≥10 (Ki≤0.1 nM))"},
      {"measurement": "JAK3 (pKi)-JAK1 (pKi)", "setting": "JAK3", "value": "A (A represents a value of 3 or above)"},
      {"measurement": "Tyk 2 (pKi)", "setting": "Tyk2", "value": "E (E represents a pKi value of 7 or below (Ki of 100 nM or above))"},
      {"measurement": "Caco Kp", "setting": "Caco-2 cell monolayers", "value": "A (A represents a value below 5×10^−6 cm/sec)"},
      {"measurement": "JAK 1 (pKi)", "setting": "JAK1", "value": "E (E represents a pKi value of 7 or below (Ki of 100 nM or above))"},
      {"measurement": "Tall-1 (pIC50)", "setting": "[2]", "value": "B (B represents a pC50 value between 6.7 (included) and 7.5 (IC50 between 200 nM and 32 nM))"}
    ]},
    {"smiles": "C=CC(=O)N1CCN(CCn2c(=O)ccc3cnc(Nc4ccc(N5CCN(C(C)=O)CC5)cc4)nc32)[C@@H](C)C1", "note": "[Example 155]", "values": [
      {"measurement": "JAK 2 (pKi)", "setting": "JAK2", "value": "E (E represents a pKi value of 7 or below (Ki of 100 nM or above))"},
      {"measurement": "Kp", "setting": "[1]", "value": "> 1000"},
      {"measurement": "JAK 3 (pKi)", "setting": "JAK3", "value": "B (B represents pKi value between 9 and 10 (Ki between 1 nM and 0.1 nM))"},
      {"measurement": "JAK3 (pKi)-JAK1 (pKi)", "setting": "JAK3", "value": "A (A represents a value of 3 or above)"},
      {"measurement": "Tyk 2 (pKi)", "setting": "Tyk2", "value": "E (E represents a pKi value of 7 or below (Ki of 100 nM or above))"},
      {"measurement": "Caco Kp", "setting": "Caco-2 cell monolayers", "value": "A (A represents a value below 5×10^−6 cm/sec)"},
      {"measurement": "JAK 1 (pKi)", "setting": "JAK1", "value": "E (E represents a pKi value of 7 or below (Ki of 100 nM or above))"},
      {"measurement": "Tall-1 (pIC50)", "setting": "[2]", "value": "B (B represents a pC50 value between 6.7 (included) and 7.5 (IC50 between 200 nM and 32 nM))"}
    ]},
    {"smiles": "C=CC(=O)N1CCN(CCn2c(=O)ccc3cnc(Nc4ccc(N5CCN(C(=O)CCSC)CC5)cc4)nc32)[C@@H](C)C1", "note": "[Example 171]", "values": [
      {"measurement": "JAK 2 (pKi)", "setting": "JAK2", "value": "E (E represents a pKi value of 7 or below (Ki of 100 nM or above))"},
      {"measurement": "Kp", "setting": "[1]", "value": "> 1000"},
      {"measurement": "JAK 3 (pKi)", "setting": "JAK3", "value": "A (A represents a pKi value≥10 (Ki≤0.1 nM))"},
      {"measurement": "JAK3 (pKi)-JAK1 (pKi)", "setting": "JAK3", "value": "A (A represents a value of 3 or above)"},
      {"measurement": "Tyk 2 (pKi)", "setting": "Tyk2", "value": "E (E represents a pKi value of 7 or below (Ki of 100 nM or above))"},
      {"measurement": "Caco Kp", "setting": "Caco-2 cell monolayers", "value": "B (B represents a value between 5×10^−6 and 10×10^−6 cm/sec)"},
      {"measurement": "JAK 1 (pKi)", "setting": "JAK1", "value": "E (E represents a pKi value of 7 or below (Ki of 100 nM or above))"},
      {"measurement": "Tall-1 (pIC50)", "setting": "[2]", "value": "A (A represents a pIC50 value≥7.5 (IC50≤32 nM))"}
    ]},
    {"smiles": "C=CC(=O)N1CCN(CCn2c(=O)ccc3cnc(Nc4ccc(N5CCN(C(=O)CSC)CC5)cc4)nc32)[C@@H](C)C1", "note": "[Example 173]", "values": [
      {"measurement": "JAK 2 (pKi)", "setting": "JAK2", "value": "E (E represents a pKi value of 7 or below (Ki of 100 nM or above))"},
      {"measurement": "Kp", "setting": "[1]", "value": "> 100"},
      {"measurement": "JAK 3 (pKi)", "setting": "JAK3", "value": "B (B represents pKi value between 9 and 10 (Ki between 1 nM and 0.1 nM))"},
      {"measurement": "JAK3 (pKi)-JAK1 (pKi)", "setting": "JAK3", "value": "A (A represents a value of 3 or above)"},
      {"measurement": "Tyk 2 (pKi)", "setting": "Tyk2", "value": "E (E represents a pKi value of 7 or below (Ki of 100 nM or above))"},
      {"measurement": "Caco Kp", "setting": "Caco-2 cell monolayers", "value": "A (A represents a value below 5×10^−6 cm/sec)"},
      {"measurement": "JAK 1 (pKi)", "setting": "JAK1", "value": "E (E represents a pKi value of 7 or below (Ki of 100 nM or above))"},
      {"measurement": "Tall-1 (pIC50)", "setting": "[2]", "value": "B (B represents a pC50 value between 6.7 (included) and 7.5 (IC50 between 200 nM and 32 nM))"}
    ]},
    {"smiles": "C=CC(=O)N1CCN(CCn2c(=O)ccc3cnc(Nc4ccc(N5CCN(C(=O)N(C)C)CC5)cc4)nc32)[C@@H](C)C1", "note": "[Example 174]", "values": [
      {"measurement": "JAK 2 (pKi)", "setting": "JAK2", "value": "E (E represents a pKi value of 7 or below (Ki of 100 nM or above))"},
      {"measurement": "Kp", "setting": "[1]", "value": "> 14"},
      {"measurement": "JAK 3 (pKi)", "setting": "JAK3", "value": "B (B represents pKi value between 9 and 10 (Ki between 1 nM and 0.1 nM))"},
      {"measurement": "JAK3 (pKi)-JAK1 (pKi)", "setting": "JAK3", "value": "A (A represents a value of 3 or above)"},
      {"measurement": "Tyk 2 (pKi)", "setting": "Tyk2", "value": "E (E represents a pKi value of 7 or below (Ki of 100 nM or above))"},
      {"measurement": "Caco Kp", "setting": "Caco-2 cell monolayers", "value": "B (B represents a value between 5×10^−6 and 10×10^−6 cm/sec)"},
      {"measurement": "JAK 1 (pKi)", "setting": "JAK1", "value": "E (E represents a pKi value of 7 or below (Ki of 100 nM or above))"},
      {"measurement": "Tall-1 (pIC50)", "setting": "[2]", "value": "B (B represents a pC50 value between 6.7 (included) and 7.5 (IC50 between 200 nM and 32 nM))"}
    ]},
    {"smiles": "C=CC(=O)N1CCN(CCn2c(=O)ccc3cnc(Nc4ccc(N5CCN(C(=O)COC)CC5)cc4)nc32)[C@@H](C)C1", "note": "[Example 175]", "values": [
      {"measurement": "JAK 2 (pKi)", "setting": "JAK2", "value": "E (E represents a pKi value of 7 or below (Ki of 100 nM or above))"},
      {"measurement": "Kp", "setting": "[1]", "value": "> 100"},
      {"measurement": "JAK 3 (pKi)", "setting": "JAK3", "value": "B (B represents pKi value between 9 and 10 (Ki between 1 nM and 0.1 nM))"},
      {"measurement": "JAK3 (pKi)-JAK1 (pKi)", "setting": "JAK3", "value": "A (A represents a value of 3 or above)"},
      {"measurement": "Tyk 2 (pKi)", "setting": "Tyk2", "value": "E (E represents a pKi value of 7 or below (Ki of 100 nM or above))"},
      {"measurement": "Caco Kp", "setting": "Caco-2 cell monolayers", "value": "A (A represents a value below 5×10^−6 cm/sec)"},
      {"measurement": "JAK 1 (pKi)", "setting": "JAK1", "value": "E (E represents a pKi value of 7 or below (Ki of 100 nM or above))"},
      {"measurement": "Tall-1 (pIC50)", "setting": "[2]", "value": "B (B represents a pC50 value between 6.7 (included) and 7.5 (IC50 between 200 nM and 32 nM))"}
    ]}
  ]
}
